Consider 2 compounds from ChEMBL document CHEMBL1156551, “Chlorohydroaspyrones A and B, antibacterial aspyrone derivatives from the marine-derived fungus Exophiala sp” (2008).

In brackets after ≈: the same amount, converted by molar mass.

What all share (assay type): functional
The test system of experiment [1] is Staphylococcus aureus. Nature of the experiment: Antibacterial activity against multidrug-resistant Staphylococcus aureus after 18 hrs by conventional 2 fold serial dilution method.
Experiment [2] has as its system Staphylococcus aureus. In words: Antibacterial activity against Staphylococcus aureus after 18 hrs by conventional 2 fold serial dilution method.
Experiment [3] has as its system Staphylococcus aureus. In words: Antibacterial activity against methicillin-resistant Staphylococcus aureus after 18 hrs by conventional 2 fold serial dilution method.

By MIC is commonly meant the least concentration at which growth counts as inhibited. Take `C[C@H](O)[C@H](Cl)C1=C[C@H](O)[C@@H](C)OC1=O` [CHLOROHYDROASPYRONE A]: the MIC in the experiment on Staphylococcus aureus [1] turned out to be 125 µg/mL (≈ 567 µM); in the experiment on Staphylococcus aureus [2], 62.5 µg/mL (≈ 283 µM); against Staphylococcus aureus [3], 125 µg/mL (≈ 567 µM).
Take `C[C@H](Cl)[C@@H](O)C1=C[C@H](O)[C@@H](C)OC1=O` [CHLOROHYDROASPYRONE B]: the minimum inhibitory concentration (MIC) in the experiment on Staphylococcus aureus [1] was determined as 125 µg/mL (≈ 567 µM); in the experiment on Staphylococcus aureus [2], 62.5 µg/mL (≈ 283 µM); against Staphylococcus aureus [3] it was 62.5 µg/mL (≈ 283 µM).
